Experimental findings from ChEMBL document CHEMBL3272178, “Prepartion of 16alpha-alkoxy and 16alpha-acyloxy derivatives of 21-chloro-17-acyloxy corticosteroids and determination of their vasoconstrictor activities in humans” (J Med Chem, 1976) are described below.

The species named for test [1] is Homo sapiens. The test can be described thus: Vasoconstrictor activity in human relative to betamethasone valerate. The format is functional, organism-based.
Test [2] is filed under the species Homo sapiens. In words: Skin stripping in human by stripped-skin assay relative to betamethasone valerate. Format: functional, organism-based.

Active and inactive are the calls of the source. No cut-off for these calls is given here.

For `CC(=O)O[C@@H]1C[C@H]2[C@@H]3CCC4=CC(=O)C=C[C@]4(C)[C@@]3(F)[C@@H](O)C[C@]2(C)[C@@]1(OC(C)=O)C(=O)CCl`, the result in the test filed under Homo sapiens [1] and in the test filed under Homo sapiens [2] was inactive.

As to `CO[C@@H]1C[C@H]2[C@@H]3CCC4=CC(=O)CC[C@]4(C)[C@@]3(F)[C@@H](O)C[C@]2(C)[C@@]1(OC(C)=O)C(=O)CCl`, the result in the test filed under Homo sapiens [1] and in the test filed under Homo sapiens [2] was inactive.

Turning to `CCCCC(=O)O[C@]1(C(=O)CCl)[C@H](OC)C[C@H]2[C@@H]3CCC4=CC(=O)CC[C@]4(C)[C@@]3(F)[C@@H](O)C[C@@]21C`, the result in the test listed under Homo sapiens [1] and in the test listed under Homo sapiens [2] was inactive.

Consider `CCC(=O)O[C@]1(C(=O)CCl)[C@H](OC(C)=O)C[C@H]2[C@@H]3CCC4=CC(=O)C=C[C@]4(C)[C@@]3(F)[C@@H](O)C[C@@]21C`, for which the outcome in the test listed under Homo sapiens [1] and in the test listed under Homo sapiens [2] was inactive.

For the molecule `CCO[C@@H]1C[C@H]2[C@@H]3CCC4=CC(=O)CC[C@]4(C)[C@@]3(F)[C@@H](O)C[C@]2(C)[C@@]1(OC(C)=O)C(=O)CCl`, the result in the test listed under Homo sapiens [1] and in the test listed under Homo sapiens [2] was inactive.
